Test results from patent US6610720B2, “Method for treating or preventing emesis” (Merck Frosst Canada & Co., priority 2000, dated 2003).
Entries after “also recorded” stand apart in the source; their conditions may differ. Like-named read-outs stand apart in the source and are kept apart here. Marks after values point to notes of the source that are not given here.

Legend:
ferrets [1] = assay: Administration of alpha-2 adrenoceptor antagonists to ferrets (retching and vomiting); conditions: for Latency responders only / Retches / Vomits: mean±SEM; for Emesis following administration (in words): ferrets
Protocol: The ferrets were housed in a humidity and temperature controlled environment with food (Marshall Premium ferret diet; Marshall Farms, North Rose, N.Y., U.S.A.) and water provided ad libitum. On the day of the experiment, ferrets were put into individual cages and left to habituate for at least 30 minutes. Fasting was not a pre-requisite of these experiments. Pre-treatment with a test compound or vehicle was performed using a subcutaneous, an intraperitoneal or an oral administration, 60 minutes prior to the emetic challenge. […] Drugs were freshly prepared on the day of the experiment. […] During that time, the number of retches (i.e. rhythmic contraction of the abdomen) and vomiting movements (i.e. oral expulsion or attempt to expel solid/liquid matter from the gastrointestinal tract) were recorded.
Data is expressed as mean±SEM.

ferrets [2] = assay: Behavioural effects observed following the administration of RS14203 in ferrets; format: in vivo, ferret (Mustela putorius furo); conditions: RS14203 1 mg/kg p.o.
Text: (§1) Fasting was not a pre-requisite of these experiments.

humans = conditions: cited from earlier work
ferrets [3] = conditions: for Incidence / Retches / Vomits / Latency responders only: 60 min prior; for Retches / Vomits: 2 h observation
Text: The anti-emetic activity of alpha-2 adrenoceptor agonists is preferably measured using, for instance, an in vivo emesis assay in the ferret. A variety of emetic stimuli may be employed including, for example, treatment with type IV cyclic nucleotide phosphodiesterase (PDE4) inhibitors (see Robichaud et al, Neuropharmacology (1999) 38, 289-297).
as §1

ferrets [4] = conditions: doses ranging from 62.5-250 μg/kg
Protocol: Male adult ferrets (Mustela putorius furo; 1-2 kg, Marshall Farms, North Rose, N.Y., U.S.A.) were used and experiments were conducted according to procedures previously described (Robichaud et al, 1999, supra). The ferrets were housed in a humidity and temperature controlled environment with food (Marshall Premium ferret diet; Marshall Farms, North Rose, N.Y., U.S.A.) and water provided ad libitum. On the day of the experiment, ferrets were put into individual cages and left to habituate for at least 30 minutes. Fasting was not a pre-requisite of these experiments. Pre-treatment with a test compound or vehicle was performed using a subcutaneous, an intraperitoneal or an oral administration, 60 minutes prior to the emetic challenge. Emesis was induced by PDE4 inhibitors administered orally (dosing volume=1 ml/kg) at a dose known to cause emesis (Robichaud et al, 1999, supra). Drugs were freshly prepared on the day of the experiment. […] During that time, the number of retches (i.e. rhythmic contraction of the abdomen) and vomiting movements (i.e. oral expulsion or attempt to expel solid/liquid matter from the gastrointestinal tract) were recorded.

elderly patients = elderly patients undergoing intraocular surgery; cited from earlier work
dogs = conditions: i.m.; cited from earlier work
children (3-12 yr) = conditions: cited from earlier work
[5] = emetic agent CT-2450 30 mg/kg p.o., pre-treatment 250 μg/kg s.c.
[6] = emetic agent R-rolipram 3 mg/kg p.o., pre-treatment 250 μg/kg s.c.
[7] = emetic agent R-rolipram 3 mg/kg p.o., pre-treatment 250 μg/kg s.c., mean ± SEM
[8] = emetic agent RS14203 1 mg/kg p.o., pre-treatment 62.5 μg/kg s.c., mean ± SEM
[9] = emetic agent RS14203 1 mg/kg p.o., pre-treatment 125 μg/kg s.c.
[10] = emetic agent RS14203 1 mg/kg p.o., pre-treatment 125 μg/kg s.c., mean ± SEM
[11] = emetic agent RS14203 1 mg/kg p.o., pre-treatment 250 μg/kg s.c.
[12] = emetic agent RS14203 1 mg/kg p.o., pre-treatment 250 μg/kg s.c., mean ± SEM
[13] = pre-treatment 250 μg/kg s.c., listed as Clonidine

In the case of `CN1CC[C@]2(CCN3CCc4c(oc5ccccc45)[C@@H]3C2)N(C)C1=O.Cl` [MK-912], the Incidence (ferrets [1]; 1 mg/kg p.o.) is reported as 2/8, the Latency responders only (ferrets [1]; 1 mg/kg p.o.) is reported as 13.0 ± 5.0 min and the Retches (ferrets [1]; 1 mg/kg p.o.) is reported as 3.2 ± 2.3 n° episodes. For the same molecule, the Vomits (ferrets [1]; 1 mg/kg p.o.) was 0.4 ± 0.3 n° episodes and the “Emesis following administration (in words)” value (ferrets [1]) was “Emesis was also recorded”.

In the case of `O=[N+]([O-])c1cccc(-c2cc(Cc3ccncc3)cc3cccnc23)c1` [RS14203], the “Behavioural effects produced in addition to emesis” value (ferrets [2]) is reported as “salivation, hyperventilation, gagging and clawing at the mouth”.

In the case of `CS(=O)(=O)NCCN1C(=O)NC[C@]12CCN1CCc3c(oc4ccccc34)[C@@H]1C2` [MK-467], the Incidence (ferrets [1]; 1 mg/kg p.o.) is reported as 0/3, the Retches (ferrets [1]; 1 mg/kg p.o.) is reported as 0 n° episodes and the Vomits (ferrets [1]; 1 mg/kg p.o.) is reported as 0 n° episodes. For the same molecule, the Incidence (ferrets [1]; 3 mg/kg p.o.) was 1/3, the Latency responders only (ferrets [1]; 3 mg/kg p.o.) was 12 min and the Retches (ferrets [1]; 3 mg/kg p.o.) was 4 ± 4 n° episodes. For the same molecule, the Vomits (ferrets [1]; 3 mg/kg p.o.) was 0.3 ± 0.3 n° episodes, the Incidence (ferrets [1]; 10 mg/kg po) was 2/3 and the Latency responders only (ferrets [1]; 10 mg/kg po) was 18.5 ± 2.5 min. The Retches (ferrets [1]; 10 mg/kg po) was 12 ± 6 n° episodes, the Vomits (ferrets [1]; 10 mg/kg po) was 1.3 ± 0.9 n° episodes and the “Emesis following administration (in words)” value (ferrets [1]) was “Emesis was also recorded”.

For `COC(=O)[C@@H]1[C@H]2C[C@H]3c4[nH]c5ccccc5c4CCN3C[C@@H]2CC[C@@H]1O` [Yohimbine, yohimbine], the “Adverse effects following parenteral administration” value (humans) is listed as “nausea and vomiting”, the Incidence (ferrets [1]; 3 mg/kg i.p.) is listed as 3/3 and the Latency responders only (ferrets [1]; 3 mg/kg i.p.) is listed as 7 ± 1 min. For the same molecule, the Retches (ferrets [1]; 3 mg/kg i.p.) was 18.7 ± 3.8 n° episodes, the Vomits (ferrets [1]; 3 mg/kg i.p.) was 5.3 ± 1.8 n° episodes and the Incidence (ferrets [1]; 3 mg/kg p.o.) was 3/4. The Latency responders only (ferrets [1]; 3 mg/kg p.o.) was 30.3 ± 13.4 min, the Retches (ferrets [1]; 3 mg/kg p.o.) was 9.8 ± 6.2 n° episodes and the Vomits (ferrets [1]; 3 mg/kg p.o.) was 3.2 ± 1.2 n° episodes. For the same molecule, the Incidence (ferrets [1]; 3 mg/kg s.c.) was 2/3, the Latency responders only (ferrets [1]; 3 mg/kg s.c.) was 9.5 ± 2.5 min and the Retches (ferrets [1]; 3 mg/kg s.c.) was 29.7 ± 17.6 n° episodes. For the same molecule, the Vomits (ferrets [1]; 3 mg/kg s.c.) was 3.0 ± 1.7 n° episodes and the “Emesis following administration (in words)” value (ferrets [1]) was “induced retching and vomiting in all ferrets treated; also recorded: caused unexpected retching and vomiting”.

For `Clc1cccc(Cl)c1N=C1NCCN1` [clonidine], the “Effect on emesis induced by CT-2450” value (ferrets [3]; CT-2450 30 mg/kg p.o., pre-treatment 250 μg/kg, all animals treated) was “abolished emesis”, the “Animals with complete protection against R-rolipram-induced emesis” value (ferrets [3]; R-rolipram 3 mg/kg p.o., pre-treatment 250 μg/kg) was “two out of three” and the “Animals showing complete protection against RS14203-induced emesis” value (ferrets [3]; RS14203 1 mg/kg p.o., pre-treatment 250 μg/kg) was “five out of six”. The “Effect on number of retches and vomits induced by RS14203” value (ferrets [3]; RS14203 1 mg/kg p.o., pre-treatment 62.5-250 μg/kg) was “dose-dependently decreased”, the Incidence (ferrets [3]; [5]) was 0/5 and the Retches (ferrets [3]; [5]) was 0* n° episodes. The Vomits (ferrets [3]; [5]) was 0* n° episodes, the Incidence (ferrets [3]; [6]) was 1/3 and the Latency responders only (ferrets [3]; [6]) was 5 min. For the same molecule, the Retches (ferrets [3]; [7]) was 54.3 ± 54.3 n° episodes, the Vomits (ferrets [3]; [7]) was 5.7 ± 5.7 n° episodes and the Incidence (ferrets [3]; emetic agent RS14203 1 mg/kg p.o., pre-treatment 62.5 μg/kg s.c.) was 2/3. It also gave a Retches (ferrets [3]; [8]) of 9.3 ± 7.9 n° episodes, a Vomits (ferrets [3]; [8]) of 1.7 ± 1.2 n° episodes and a Latency responders only (ferrets [3]; [8]) of 55.0 ± 49.0 min. For the same molecule, the Incidence (ferrets [3]; [9]) was 1/3, the Latency responders only (ferrets [3]; [9]) was 72 min and the Retches (ferrets [3]; [10]) was 2 ± 2 n° episodes. For the same molecule, the Vomits (ferrets [3]; [10]) was 1 ± 1 n° episodes, the Incidence (ferrets [3]; [11]) was 1/6 and the Latency responders only (ferrets [3]; [11]) was 111 min. For the same molecule, the Retches (ferrets [3]; [12]) was 0.2 ± 0.2 n° episodes, the Vomits (ferrets [3]; [12]) was 0.2 ± 0.2 n° episodes and the “Effect on RS14203-induced gagging or clawing at the mouth” value (ferrets [2]) was “no effect”. For the same molecule, the Clawing at mouth (ferrets [2]; pre-treatment 62.5 μg/kg s.c.) was 2/3, the Gagging (ferrets [2]; pre-treatment 62.5 μg/kg s.c.) was 1/3 and the Hyperventilation (ferrets [2]; pre-treatment 62.5 μg/kg s.c.) was 2/3. For the same molecule, the Salivation (ferrets [2]; pre-treatment 62.5 μg/kg s.c.) was 2/3, the Clawing at mouth (ferrets [2]; pre-treatment 125 μg/kg s.c.) was 1/3 and the Gagging (ferrets [2]; pre-treatment 125 μg/kg s.c.) was 1/3. The Hyperventilation (ferrets [2]; pre-treatment 125 μg/kg s.c.) was 2/3, the Salivation (ferrets [2]; pre-treatment 125 μg/kg s.c.) was 1/3 and the Clawing at mouth (ferrets [2]; pre-treatment 250 μg/kg s.c.) was 5/6. The Gagging (ferrets [2]; pre-treatment 250 μg/kg s.c.) was 5/6, the Hyperventilation (ferrets [2]; pre-treatment 250 μg/kg s.c.) was “one out of six” and the Salivation (ferrets [2]; pre-treatment 250 μg/kg s.c.) was “none of the animals”. The Hyperventilation (ferrets [2]; [13]) was 1/6, the Salivation (ferrets [2]; [13]) was 0/6 and the “Emesis triggered by the compound by itself” value (ferrets [4]) was “did not trigger emesis”. For the same molecule, the “Sedation following the administration” value (ferrets [4]; appeared dose-related) was “light sedation”, the Effect on emesis (elderly patients) was “no effect on emesis” and the Sedation (elderly patients) was “induced sedation”. For the same molecule, the “Emetic ED50” value (dogs) was 0.025 mg/kg and the “Incidence and frequency of vomiting following strabismus surgery” value (children (3-12 yr)) was “lower the incidence and frequency of vomiting”.
